Where “and” joins values, the source holds several entries; their conditions need not be identical. Equal values may be shown once. Residues, ends and D or L forms follow the SMILES beside them.
tested on: Caco-2; assay: Permeability from basolateral to apical side of the Caco-2 cell membrane; type: ADME, cell-based; details: human

| Structure (SMILES) | LogP app |
| --- | --- |
| COc1cccc(C(=O)NN(C(=O)c2cc(C)cc(C)c2)C(C)(C)C)c1C [METHOXYFENOZIDE] | -4.38 |
| c1ccc(Nc2ccccc2)cc1 [DIPHENYLAMINE] | -4.35 |
| CCNc1nc(Cl)nc(NC(C)C)n1 [ATRAZINE] | -4.45 |
| COc1nn(CSP(=S)(OC)OC)c(=O)s1 [METHIDATHION] | -4.42 |
| CCc1ccc(C(=O)NN(C(=O)c2cc(C)cc(C)c2)C(C)(C)C)cc1 [TEBUFENOZIDE] | -4.39 |
| CCOP(=S)(OCC)Oc1cc(C)nc(C(C)C)n1 [DIMPYLATE] | -4.42 |
| CC(C)OP(=O)(OC(C)C)SCc1ccccc1 [IPROBENFOS] | -4.35 |
| CC(C)(C)N(NC(=O)c1ccccc1)C(=O)c1ccccc1 [RH-5849] | -4.42 |

tested on: not listed separately; assay: Permeability coefficient through artificial membrane in presence of unstirred water layer by PAMPA; details: not given

| Structure (SMILES) | LogP app | Papp [×10⁻⁶ cm/s] |
| --- | --- | --- |
| CC(C)Cc1ccc(C(C)C(=O)O)cc1 (stereo not given) [IBUPROFEN] | -4.67 and -4.72 |  |
| O=[N+]([O-])NC1=NCCN1Cc1ccc(Cl)nc1 [IMIDACLOPRID] | -5.34 | 4.52 |
| OCCc1c[nH]c2ccccc12 [TRYPTOPHOL] | -4.72 |  |
| COCCc1ccc(OCC(O)CNC(C)C)cc1 (stereo not given) [METOPROLOL] | -5.1 and -4.95 |  |
| Nc1ccc(Cl)cc1 [4-CHLOROANILINE] | -4.38 | 41.8 |
| CCn1cc(C(=O)O)c(=O)c2cc(F)c(N3CCNCC3)cc21 [NORFLOXACIN] | -6.71 |  |
| CC(C)[C@H](NC(=O)[C@H](C)NC(=O)[C@@H](N)Cc1c[nH]c2ccccc12)C(N)=O (H-Trp-Ala-Val-NH2) | -6.62 |  |
| NC(=O)[C@@H](N)Cc1c[nH]c2ccccc12 | -5.56 |  |
| COc1cccc(C(=O)NN(C(=O)c2cc(C)cc(C)c2)C(C)(C)C)c1C [METHOXYFENOZIDE] | -4.72 | 19.1 |
| c1ccc(Nc2ccccc2)cc1 [DIPHENYLAMINE] | -5.51 | 3.1 |
| CC(C)NCC(O)COc1cccc2[nH]ccc12 (stereo not given) [PINDOLOL] | -5.31 |  |
| CC(=O)N[C@@H](Cc1ccc(O)cc1)C(=O)N[C@@H](CC(C)C)C(N)=O (Ac-Tyr-Leu-NH2) | -6.54 |  |
| NCCc1c[nH]c2ccccc12 [TRYPTAMINE] | -5.27 |  |
| C=CCOc1ccccc1OCC(O)CNC(C)C (stereo not given) [OXPRENOLOL] | -4.83 |  |
| Clc1cccc(Cl)c1N=C1NCCN1 [CLONIDINE] | -4.98 |  |
| CC(=O)N[C@H](Cc1c[nH]c2ccccc12)C(=O)N[C@H](C(N)=O)C(C)C | -6.14 |  |
| NCC(=O)N[C@@H](Cc1c[nH]c2ccccc12)C(N)=O (H-Gly-Trp-NH2) | -6.38 |  |
| CCNc1nc(Cl)nc(NC(C)C)n1 [ATRAZINE] | -4.53 | 29.2 |
| COc1nn(CSP(=S)(OC)OC)c(=O)s1 [METHIDATHION] | -4.97 | 10.8 |
| CCc1ccc(C(=O)NN(C(=O)c2cc(C)cc(C)c2)C(C)(C)C)cc1 [TEBUFENOZIDE] | -4.8 | 15.7 |
| CCOP(=S)(OCC)Oc1cc(C)nc(C(C)C)n1 [DIMPYLATE] | -5.28 | 5.21 |
| CC(C)OP(=O)(OC(C)C)SCc1ccccc1 [IPROBENFOS] | -4.93 | 11.7 |
| CC(C)(C)N(NC(=O)c1ccccc1)C(=O)c1ccccc1 [RH-5849] | -4.78 | 16.5 |

tested on: not listed separately; assay: Intrinsic artificial membrane permeability coefficient, log P0 of the compound; type: ADME; details: not given

| Structure (SMILES) | logPm |
| --- | --- |
| CC(C)Cc1ccc(C(C)C(=O)O)cc1 (stereo not given) [IBUPROFEN] | -1.15 |
| COCCc1ccc(OCC(O)CNC(C)C)cc1 (stereo not given) [METOPROLOL] | -1.75 |

tested on: Caco-2; assay: Permeability from apical to basolateral side of the Caco-2 cell membrane; type: ADME, cell-based; details: human

| Structure (SMILES) | LogP app |
| --- | --- |
| COc1cccc(C(=O)NN(C(=O)c2cc(C)cc(C)c2)C(C)(C)C)c1C [METHOXYFENOZIDE] | -4.33 |
| c1ccc(Nc2ccccc2)cc1 [DIPHENYLAMINE] | -4.4 |
| CCNc1nc(Cl)nc(NC(C)C)n1 [ATRAZINE] | -4.39 |
| CCc1ccc(C(=O)NN(C(=O)c2cc(C)cc(C)c2)C(C)(C)C)cc1 [TEBUFENOZIDE] | -4.44 |
| CCOP(=S)(OCC)Oc1cc(C)nc(C(C)C)n1 [DIMPYLATE] | -4.32 |
| CC(C)OP(=O)(OC(C)C)SCc1ccccc1 [IPROBENFOS] | -4.28 |
| CC(C)(C)N(NC(=O)c1ccccc1)C(=O)c1ccccc1 [RH-5849] | -4.34 |

tested on: not listed separately; assay: Partition coefficient, log P of the compound; details: octanol/water

| Structure (SMILES) | logP |
| --- | --- |
| O=[N+]([O-])NC1=NCCN1Cc1ccc(Cl)nc1 [IMIDACLOPRID] | 0.59 |
| OCCc1c[nH]c2ccccc12 [TRYPTOPHOL] | 1.54 |
| Nc1ccc(Cl)cc1 [4-CHLOROANILINE] | 1.88 |
| CCn1cc(C(=O)O)c(=O)c2cc(F)c(N3CCNCC3)cc21 [NORFLOXACIN] | -1.03 |
| CC(C)[C@H](NC(=O)[C@H](C)NC(=O)[C@@H](N)Cc1c[nH]c2ccccc12)C(N)=O (H-Trp-Ala-Val-NH2) | 0.4 |
| NC(=O)[C@@H](N)Cc1c[nH]c2ccccc12 | 0.3 |
| CC(C)NCC(O)COc1cccc2[nH]ccc12 (stereo not given) [PINDOLOL] | 1.75 |
| CC(=O)N[C@@H](Cc1ccc(O)cc1)C(=O)N[C@@H](CC(C)C)C(N)=O (Ac-Tyr-Leu-NH2) | 0.32 |
| NCCc1c[nH]c2ccccc12 [TRYPTAMINE] | 1.35 |
| C=CCOc1ccccc1OCC(O)CNC(C)C (stereo not given) [OXPRENOLOL] | 2.1 |
| Clc1cccc(Cl)c1N=C1NCCN1 [CLONIDINE] | 1.43 |
| CC(=O)N[C@H](Cc1c[nH]c2ccccc12)C(=O)N[C@H](C(N)=O)C(C)C | 0.65 |
| NCC(=O)N[C@@H](Cc1c[nH]c2ccccc12)C(N)=O (H-Gly-Trp-NH2) | -0.48 |
| COc1nn(CSP(=S)(OC)OC)c(=O)s1 [METHIDATHION] | 2.5 |
| CCOP(=S)(OCC)Oc1cc(C)nc(C(C)C)n1 [DIMPYLATE] | 3.3 |
| CC(C)OP(=O)(OC(C)C)SCc1ccccc1 [IPROBENFOS] | 3.21 |

tested on: not listed separately; assay: Permeability coefficient through artificial membrane in presence of stirred water layer; details: PAMPA

| Structure (SMILES) | Papp [×10⁻⁶ cm/s] | LogP app |
| --- | --- | --- |
| O=[N+]([O-])NC1=NCCN1Cc1ccc(Cl)nc1 [IMIDACLOPRID] | 5.21 |  |
| COCCc1ccc(OCC(O)CNC(C)C)cc1 (stereo not given) [METOPROLOL] | 14.3 |  |
| Nc1ccc(Cl)cc1 [4-CHLOROANILINE] | 258 |  |
| CCn1cc(C(=O)O)c(=O)c2cc(F)c(N3CCNCC3)cc21 [NORFLOXACIN] | 0.18 | -6.74 |
| c1ccc(Nc2ccccc2)cc1 [DIPHENYLAMINE] | 15 |  |
| CC(C)NCC(O)COc1cccc2[nH]ccc12 (stereo not given) [PINDOLOL] | 1.42 | -5.85 |
| C=CCOc1ccccc1OCC(O)CNC(C)C (stereo not given) [OXPRENOLOL] | 9.36 | -5.03 |
| Clc1cccc(Cl)c1N=C1NCCN1 [CLONIDINE] | 11.4 | -4.94 |
| CCNc1nc(Cl)nc(NC(C)C)n1 [ATRAZINE] | 72.1 |  |
| COc1nn(CSP(=S)(OC)OC)c(=O)s1 [METHIDATHION] | 46.9 |  |
| CCOP(=S)(OCC)Oc1cc(C)nc(C(C)C)n1 [DIMPYLATE] | 31.1 |  |
| CC(C)OP(=O)(OC(C)C)SCc1ccccc1 [IPROBENFOS] | 362 |  |

same assay, conditions: artificial membrane

| Structure (SMILES) | LogP app |
| --- | --- |
| O=[N+]([O-])NC1=NCCN1Cc1ccc(Cl)nc1 [IMIDACLOPRID] | -5.31 |
| COCCc1ccc(OCC(O)CNC(C)C)cc1 (stereo not given) [METOPROLOL] | -4.84 |
| Nc1ccc(Cl)cc1 [4-CHLOROANILINE] | -3.59 |
| c1ccc(Nc2ccccc2)cc1 [DIPHENYLAMINE] | -4.82 |
| CCNc1nc(Cl)nc(NC(C)C)n1 [ATRAZINE] | -4.14 |
| COc1nn(CSP(=S)(OC)OC)c(=O)s1 [METHIDATHION] | -4.33 |
| CCOP(=S)(OCC)Oc1cc(C)nc(C(C)C)n1 [DIMPYLATE] | -4.51 |
| CC(C)OP(=O)(OC(C)C)SCc1ccccc1 [IPROBENFOS] | -3.44 |

Source: ChEMBL document CHEMBL1143050, “QSAR study on permeability of hydrophobic compounds with artificial membranes” (Bioorg Med Chem, 2007)
